From patent publication US20220372040A1, “METTL3 MODULATORS” (Accent Therapeutics, Inc., priority 2020, published 2022) come the findings set out here.

Assay [1] has as its target METTL1/WDR4 (Homo sapiens, UniProt Q9UBP6). The experiment in a line: METTL1 assay (3H-SAM flashplate scintillation). The assay is classed as biochemical. As to conditions: METTL1/WDR4 6.25 nM, RNA 25 nM, 3H-SAM 60 nM, 20 min; read-out: METTL1 IC50. Put shortly:
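Radiometric methyltransfer by METTL1/WDR4 (6.25 nM f.c., 5 min preincubation) at ambient temperature in HEPES pH 7.5, KCl, MgCl2, DTT; started with 25 nM 3′-biotinylated RNA and 60 nM 3H-SAM, run 20 min, quenched with 15 μM cold SAM. Product captured on streptavidin flashplates (2 h, 25° C), counted by scintillation.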

The subject of assay [2] is MOLM-13 cells. The experiment in a line: MOLM-13 48 Hour cell proliferation assay (Cell Titer-Glo). The conditions noted are these: Homo sapiens. Type of assay: cell-based. The procedure:
MOLM-13 48 Hour Cell Proliferation Assay
MOLM-13 (DSMZ) cells were seeded at 1000 cells per well in a volume of 44 μL in a Falcon 384-well tissue culture treated clear bottom microplate in RPMI 1640 media containing 10% fetal bovine serum using a Multidrop Combi (ThermoFisher Scientific). Cells were incubated overnight at 37° C. in a humidified tissue culture incubator. The Mosquito® HTS Liquid Handler was used to make a compound/media intermediate plate by aliquoting […] of compound from the initial compound dilution plate (concentrations ranging from 10.0 mM to 38.0 nM in 100% DMSO) into a V bottom 384-well screen matrix plate containing 49 µL of media containing the appropriate serum (50-fold dilution, 2% DMSO). The Apricot liquid handling system was used to transfer […] compounds from the intermediate plate into the Falcon 384-well tissue culture plate containing 44 μL cells (10-point, 4-fold dilution spanning concentrations 25.0 μM to […], 0.25% DMSO final), and placed in a humidified tissue culture incubator at 37° C. After 48 hours, 25 μL of Cell Titer-Glo reagent (Promega) was added to each well using a Multidrop Combi. The plate was protected from light and placed on an IKA plate shaker for at 300 rpm for 10 minutes at room temperature. The plate was read on an EnVision plate reader (Perkin Elmer) using the Ultra Sensitive Luminescence protocol. Data analysis was performed by normalizing the raw luminescence units to an average of the positive control values for staurosporine (100% cell death) and the negative control values for DMSO (0% cell death). An IC50 was calculated using a 4-parameter logistic nonlinear regression model in GraphPad Prism.

Assay [3] concerns the target PRMT5-MEP50 (Homo sapiens, UniProt O14744). The experiment in a line: PRMT5 assay (3H-SAM flashplate scintillation). The assay is classed as biochemical. As to conditions: PRMT5-MEP50 2.5 nM, histone H4 peptide 100 nM, 3H-SAM 250 nM, 60 min. An outline of the steps: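 Radiometric methyltransferase read-out: after 60 min reaction, excess unlabelled SAM (15 μM) stops turnover and biotinylated H4 peptide (100 nM) carrying 3H-methyl from 250 nM 3H-SAM is captured on streptavidin flashplates (2 h, 25° C) for scintillation counting. Enzyme, 2.5 nM PRMT5-MEP50, was preincubated 5 min with compound in pH 8.0 Tris buffer with DTT and Tween.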

For assay [4], the target named is METTL3/METTL14 (Homo sapiens, UniProt Q86U44). Nature of the assay: METTL3-14 standard enzyme assay (3H-SAM flashplate scintillation). The assay is classed as biochemical. The conditions noted are these: METTL3/METTL14 2.5 nM, RNA 100 nM, 3H-SAM 100 nM, 30 min. An outline of the steps: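 Radiometric methylation readout: biotinylated RNA substrate UCUGGACUAAA and 3H-SAM, each 100 nM final, reacted 30 min at ambient temperature with 2.5 nM enzyme complex after 5 min compound preincubation (HEPES pH 7.5 buffer, KCl, MgCl2, DTT). Excess unlabelled SAM (15 μM) stopped reactions before streptavidin flashplate capture.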

Assay [5] deals with m^6 A in cellular mRNA of MOLM-13 cells. The experiment in a line: m^6 A-mRNA LC-MS/MS assay (m^6 A cellular assay). The conditions noted are these: Homo sapiens, 24 hours incubation, LC-MS/MS of m^6 A/A in mRNA. The assay is classed as cell-based. The procedure:
m^6 A-mRNA LC-MS/MS Assay
5×10^6 MOLM-13 (DSMZ) cells were seeded into 10 cm dishes in RPMI 1640 media containing 10% fetal bovine serum and placed in a humidified tissue culture incubator at 37° C. overnight. Compounds were resuspended in 100% DMSO and dosed into each dish at a fixed concentration to comprise an 8-point dose response with a 4-fold serial dilution ranging from 25 μM to 1.5 nM in 0.25% DMSO final and allowed to incubate for 24 hours in a humidified tissue culture incubator at 37° C. Cells were harvested by centrifugation followed by mRNA extraction using DTRECT Dynabeads mRNA DTRECT kit (Life Technologies). mRNA was quantified on NanoDrop spectrophotometer (Thermo Fisher Scientific) and digested into single nucleosides using Nucleoside Digestion Mix (New England Biolabs). Nucleosides are quantified with retention time on a BEH […] column (Waters) and the nucleoside-to-base ion mass transition of 282.1-150.1 (m^6 A) and 268-136 (A) on an API 6500+ triple quadrupole mass spectrometer. Quantification is performed in comparison with the standard curve, obtained from pure nucleoside standards (Selleck Chemicals) running with the same batch of samples. Percentage m^6 A in cellular mRNA is calculated as 100*(m^6 A/A).

Assay [6] deals with MOLM-13 cells. Nature of the assay: MOLM-13 96 Hour cell proliferation assay (Cell Titer-Glo). The assay is classed as cell-based. As to conditions: Homo sapiens. The procedure:
MOLM-13 96 Hour Cell Proliferation Assay
MOLM-13 (DSMZ) cells were seeded at 600 cells per well in a volume of 44 μL in a Greiner Bio-One CELLSTAR™ 384 Well Polystyrene Cell Culture clear bottom microplate in RPMI 1640 media containing 10% fetal bovine serum using a Multidrop Combi (ThermoFisher Scientific). Cells were incubated overnight at 37° C. in a humidified tissue culture incubator. To prevent evaporation or to reduce edge effect, add 50 μL or more H2O to an empty plate, cover, and place on top of the cell plates. The Mosquito® HTS Liquid Handler was used to make a compound/media intermediate plate by aliquoting 1 μL of compound from the initial compound dilution plate (concentrations ranging from 10.0 mM to 38.0 nM in 100% DMSO) into Bio-One 384-well polypropylene conical bottom microplate containing 49 μL of media containing the appropriate serum (50-fold dilution, 2% DMSO, compound concentrations ranging from 200.0 μM and […]). The Apricot liquid handling system was used to transfer 6.2 μL compounds from the intermediate plate into the seeding plate containing 44 μL cells (8-fold dilution spanning concentrations 25.0 μM to […], 0.25% DMSO final), and placed in a humidified tissue culture incubator at 37° C. After 96 hours, 25 μL of Cell Titer-Glo reagent (Promega) was added to each well using an Integra liquid handling system. The plate was protected from light using TopSeal-A (Black) film over the entire plate, added White Bottom seal film on the bottom of the entire plate for a better reading on the Envision, and placed on an IKA plate shaker for at 300 rpm for 10 minutes at room temperature. The plate was read on an EnVision plate reader (Perkin Elmer) using the Ultra Sensitive Luminescence protocol. Data analysis was performed by normalizing the raw luminescence units to an average of the positive control values for staurosporine (100% cell death) and the negative control values for DMSO (0% cell death). An IC50 was calculated using a 4-parameter logistic nonlinear regression model in GraphPad Prism.
(In general: ATP-based viability assays read luminescence as a measure of living cells.)

METTL1/WDR4, sequence (Q9UBP6 whole entry, species assumed): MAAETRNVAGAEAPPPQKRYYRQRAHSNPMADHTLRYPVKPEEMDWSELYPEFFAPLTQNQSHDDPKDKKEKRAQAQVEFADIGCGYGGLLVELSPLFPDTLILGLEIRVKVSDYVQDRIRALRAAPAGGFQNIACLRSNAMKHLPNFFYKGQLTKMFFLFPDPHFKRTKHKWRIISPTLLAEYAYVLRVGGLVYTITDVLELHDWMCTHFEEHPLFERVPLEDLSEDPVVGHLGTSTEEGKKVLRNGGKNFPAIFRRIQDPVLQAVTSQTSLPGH
METTL1/WDR4, sequence (P57081 whole entry partner, species assumed): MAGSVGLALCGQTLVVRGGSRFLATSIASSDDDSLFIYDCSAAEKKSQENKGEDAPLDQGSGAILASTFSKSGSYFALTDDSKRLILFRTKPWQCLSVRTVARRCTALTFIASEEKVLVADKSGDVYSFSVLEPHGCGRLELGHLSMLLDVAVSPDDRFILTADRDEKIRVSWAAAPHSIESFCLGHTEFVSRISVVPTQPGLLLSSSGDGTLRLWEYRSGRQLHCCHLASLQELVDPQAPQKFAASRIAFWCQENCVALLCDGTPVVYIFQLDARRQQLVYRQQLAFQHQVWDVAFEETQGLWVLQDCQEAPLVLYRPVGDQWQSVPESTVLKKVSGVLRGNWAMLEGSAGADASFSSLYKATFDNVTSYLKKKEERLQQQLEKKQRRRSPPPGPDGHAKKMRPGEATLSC
METTL3/METTL14, sequence (Q86U44 whole entry, species assumed): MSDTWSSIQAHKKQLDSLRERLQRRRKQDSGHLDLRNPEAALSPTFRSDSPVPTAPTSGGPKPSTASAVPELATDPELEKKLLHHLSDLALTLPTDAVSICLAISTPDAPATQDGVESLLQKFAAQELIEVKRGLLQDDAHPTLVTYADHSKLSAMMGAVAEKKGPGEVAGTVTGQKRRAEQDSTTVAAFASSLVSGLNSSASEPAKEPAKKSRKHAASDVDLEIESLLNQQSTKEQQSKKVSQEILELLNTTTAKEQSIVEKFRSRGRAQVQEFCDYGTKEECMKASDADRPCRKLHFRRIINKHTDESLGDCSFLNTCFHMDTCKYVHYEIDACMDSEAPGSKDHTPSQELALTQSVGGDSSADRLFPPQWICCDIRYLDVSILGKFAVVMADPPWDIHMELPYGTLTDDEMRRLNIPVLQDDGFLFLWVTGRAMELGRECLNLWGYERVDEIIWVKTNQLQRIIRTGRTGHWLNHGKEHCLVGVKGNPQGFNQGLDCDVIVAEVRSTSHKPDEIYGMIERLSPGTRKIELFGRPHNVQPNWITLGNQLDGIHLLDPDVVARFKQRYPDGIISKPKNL
METTL3/METTL14, sequence (Q9HCE5 whole entry partner, species assumed): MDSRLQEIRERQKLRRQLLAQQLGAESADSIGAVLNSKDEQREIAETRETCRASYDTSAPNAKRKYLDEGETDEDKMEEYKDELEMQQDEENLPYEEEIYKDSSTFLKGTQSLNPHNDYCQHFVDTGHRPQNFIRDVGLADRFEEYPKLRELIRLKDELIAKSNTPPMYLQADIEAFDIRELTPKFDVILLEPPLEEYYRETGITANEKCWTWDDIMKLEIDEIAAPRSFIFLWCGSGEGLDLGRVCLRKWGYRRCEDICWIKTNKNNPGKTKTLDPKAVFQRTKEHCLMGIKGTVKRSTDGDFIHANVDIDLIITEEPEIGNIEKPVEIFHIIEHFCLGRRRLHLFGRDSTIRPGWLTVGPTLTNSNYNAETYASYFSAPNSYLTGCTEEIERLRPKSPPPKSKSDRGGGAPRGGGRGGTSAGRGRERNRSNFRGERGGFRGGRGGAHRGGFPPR
PRMT5-MEP50, sequence (O14744 whole entry): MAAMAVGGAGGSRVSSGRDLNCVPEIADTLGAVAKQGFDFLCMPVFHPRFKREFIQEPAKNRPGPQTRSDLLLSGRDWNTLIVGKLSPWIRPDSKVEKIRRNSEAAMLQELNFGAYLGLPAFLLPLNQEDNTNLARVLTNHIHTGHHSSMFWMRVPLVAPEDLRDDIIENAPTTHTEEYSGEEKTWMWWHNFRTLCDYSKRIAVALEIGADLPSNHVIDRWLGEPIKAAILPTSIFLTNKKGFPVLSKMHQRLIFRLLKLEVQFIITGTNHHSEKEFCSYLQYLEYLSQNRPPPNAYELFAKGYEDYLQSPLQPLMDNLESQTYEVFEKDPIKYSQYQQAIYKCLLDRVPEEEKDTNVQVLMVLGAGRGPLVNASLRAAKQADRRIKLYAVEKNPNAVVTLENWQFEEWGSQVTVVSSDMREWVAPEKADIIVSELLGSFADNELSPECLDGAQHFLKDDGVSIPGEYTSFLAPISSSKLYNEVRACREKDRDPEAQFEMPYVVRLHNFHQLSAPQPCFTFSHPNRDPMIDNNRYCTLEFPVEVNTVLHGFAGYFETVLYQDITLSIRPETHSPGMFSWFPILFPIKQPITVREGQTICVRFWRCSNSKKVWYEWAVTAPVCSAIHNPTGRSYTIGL
PRMT5-MEP50, sequence (Q9BQA1 whole entry partner): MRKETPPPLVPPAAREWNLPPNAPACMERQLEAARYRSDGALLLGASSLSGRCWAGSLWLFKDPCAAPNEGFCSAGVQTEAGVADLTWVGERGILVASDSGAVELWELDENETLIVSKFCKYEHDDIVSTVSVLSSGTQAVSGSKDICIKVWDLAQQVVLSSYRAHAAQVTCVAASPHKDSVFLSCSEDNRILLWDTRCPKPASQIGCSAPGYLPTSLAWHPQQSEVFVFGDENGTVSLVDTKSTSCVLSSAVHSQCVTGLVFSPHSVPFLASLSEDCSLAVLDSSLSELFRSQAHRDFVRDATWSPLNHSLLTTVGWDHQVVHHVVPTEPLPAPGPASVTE

As a reminder, the IC50 is the concentration needed to halve the response being measured. `CCc1cc(NCCOC)c2ccc(OCc3cncc(-c4c[nH]c5c(N)ncnc45)c3)cc2n1` [Compound I-7]: the IC50 in assay [1] was greater than 1000 nM; in assay [2], no less than 10000 nM; in assay [3], greater than 1000 nM; in assay [4], less than 10 nM.
Consider `CCc1cc(N(C)C2CC2)c2ccc(OCc3cncc(-n4cc(-c5ccn(C)n5)c5c(N)ncnc54)c3)cc2n1` [Compound I-136], for which the results for the 50% inhibitory concentration (IC50) in assay [5], in assay [6] and in assay [4] were 1000 to 10000 nM, less than 1000 nM and less than 10 nM, respectively.
On to `CCc1cc(NCCN(C)C)c2ccc(OCc3cncc(-n4ccc5c(N)ncnc54)c3)cc2n1` [Compound I-15], for which the half-maximal inhibitory concentration (IC50) in assay [1] is greater than 1000 nM; in assay [2], 1000 to 10000 nM; in assay [3] it was greater than 1000 nM; in assay [4] it was less than 10 nM.
For the compound `CNc1ccc2ccc(OCc3cncc(-n4cc(-c5ccc(CNCCS(C)(=O)=O)o5)c5c(N)ncnc54)c3)cc2n1` [Compound I-236], the figures for the 50% inhibitory concentration (IC50) in assay [5], in assay [6] and in assay [4] were 1000 to 10000 nM, 1000 to 10000 nM and less than 10 nM, respectively.
Take `Nc1ncnc2c1c([C@@H]1CCCO1)cn2-c1cncc(COc2ccc3ccc(N4CCC4)nc3c2)c1` [Compound I-145]: the concentration for half-maximal inhibition (IC50) was less than 1000 nM in assay [5], less than 1000 nM in assay [6] and less than 10 nM in assay [4].
Regarding `CCc1cc(NCCN(C)C)c2c(F)cc(OCc3cncc(-n4cc(-c5ccn(C)n5)c5c(N)ncnc54)c3)cc2n1` [Compound I-230], the half-maximal inhibitory concentration (IC50) in assay [5] was no less than 10000 nM; in assay [6], 1000 to 10000 nM; in assay [4] it was less than 10 nM.
On to `CNc1cc(CCCN2CCOCC2)c2ccc(OCc3cncc(-n4ccc5c(N)ncnc54)c3)cc2n1` [Compound I-233], for which the IC50 in assay [5] is no less than 10000 nM; in assay [6], 1000 to 10000 nM; in assay [3], greater than 1000 nM; in assay [4] it was less than 10 nM.
Turning to `CCc1cc(NCCN(C)C)c2c(F)cc(CCc3cncc(-n4cc(-c5ccn(C)n5)c5c(N)ncnc54)c3)cc2n1` [Compound I-227], the IC50 is 1000 to 10000 nM in assay [5], less than 1000 nM in assay [6] and less than 10 nM in assay [4].
For the compound `Cn1ccc(-c2cn(-c3cncc(CCc4ccc5ccc(N6CCC6)nc5c4)c3)c3ncnc(N)c23)n1` [Compound I-104], the IC50 in assay [5] was less than 1000 nM; in assay [6], less than 1000 nM; in assay [3], greater than 1000 nM; in assay [4] it was less than 10 nM.
Turning to `CC(C)c1cc(N2CCNCC2)c2ccc(OCc3cncc(-n4ccc5c(N)ncnc54)c3)cc2n1` [Compound I-95], the IC50 in assay [5] was 1000 to 10000 nM; in assay [1], greater than 1000 nM; in assay [6], less than 1000 nM; in assay [3], greater than 1000 nM; in assay [4], less than 10 nM.
For `CCc1cc(N2CCOCC2)c2ccc(OCc3cncc(-n4ccc5c(N)ncnc54)c3)cc2n1` [Compound I-108], the half-inhibitory concentration (IC50) was 1000 to 10000 nM in assay [5], 1000 to 10000 nM in assay [6], greater than 1000 nM in assay [3] and less than 10 nM in assay [4].
For the compound `CCc1cc(N(C)C)c2ccc(OCc3cncc(-n4cc(-c5ccn(C)n5)c5c(N)ncnc54)c3)cc2n1` [Compound I-147], the IC50 in assay [5] was no less than 10000 nM; in assay [6], less than 1000 nM; in assay [4], less than 10 nM.
Turning to `CCc1cc(N(C)CCN(C)C)c2ccc(CCc3cncc(-n4cc(-c5ccn(C)n5)c5c(N)ncnc54)c3)cc2n1` [Compound I-155], the figures for the concentration for half-maximal inhibition (IC50) in assay [5], in assay [6] and in assay [4] were 1000 to 10000 nM, less than 1000 nM and less than 10 nM, respectively.
Take `CN(C)CCNc1cc(C2CCC2)nc2cc(OCc3cncc(-n4ccc5c(N)ncnc54)c3)ccc12` [Compound I-92]: the concentration for half-maximal inhibition (IC50) is 1000 to 10000 nM in assay [5]; greater than 1000 nM in assay [1]; less than 1000 nM in assay [6]; greater than 1000 nM in assay [3]; less than 10 nM in assay [4].
For the compound `CCNc1ccc2ccc(CCc3cncc(-n4cc(-c5ccn(C)n5)c5c(N)ncnc54)c3)cc2n1` [Compound I-106], the 50% inhibitory concentration (IC50) was less than 1000 nM in assay [5], less than 1000 nM in assay [6], greater than 1000 nM in assay [3] and less than 10 nM in assay [4].
